Assay: Solubility check of 20 wt % solutions in organic solvents
Type: physicochemical
Parameters: key: A: the compound dissolves at room temperature; B: the compound does not dissolve at room temperature but dissolves when heated to 60° C.; the compound does not dissolve even when heated to 60° C
Conditions: room temperature or heated to 60° C.; for Results of Solubility Chloroform: 20 wt % solution in chloroform; for Results of Solubility Cyclopentanone: 20 wt % solution in cyclopentanone; for Results of Solubility MEK: 20 wt % solution in methyl ethyl ketone (MEK); for Results of Solubility MIBK: 20 wt % solution in methyl isobutyl ketone (MIBK); for Results of Solubility Toluene: 20 wt % solution in toluene; for Results of Solubility Trichloroethane: 20 wt % solution in trichloroethane
Experimental: 20 wt % solutions of each of the compounds to be evaluated in chloroform, trichloroethane, cyclopentanone, methyl ethyl ketone (MEK), methyl isobutyl ketone (MIBK), and toluene were prepared to check the solubilities of the compound to be evaluated.

| SMILES | Results of Solubility Chloroform | Results of Solubility Cyclopentanone | Results of Solubility MEK | Results of Solubility MIBK | Results of Solubility Toluene | Results of Solubility Trichloroethane |
| --- | --- | --- | --- | --- | --- | --- |
| C=CC(=O)OCCOCCOCCOc1ccc(C(=O)Oc2ccc(-c3ccc(CCC)cc3)cc2/C=N/Nc2nc3ccccc3s2)cc1 [Compound I-1] | A | A | A | A | A | A |
| C=CC(=O)OCCOCCOCCOc1ccc(OC(=O)C2CCC(C(=O)Oc3ccc(C4CCC(CCC)CC4)cc3/C=N/Nc3nc4ccccc4s3)CC2)cc1 (stereo not drawn) [Compound I-2] | A | A | A | B | A | A |
| C=CC(=O)OCCOCCOCCOc1ccc(OC(=O)C2CCC(C(=O)Oc3ccc(C4CCC(CCC)CC4)cc3/C=N/N(CCCCCC)c3nc4ccccc4s3)CC2)cc1 (stereo not drawn) [Compound I-3] | A | A | C | C | B | A |
| C=CC(=O)OCCOCCOCCOc1ccc(OC(=O)C2CCC(C(=O)Oc3ccc(C4CCC(C5CCC(CCC)CC5)CC4)cc3/C=N/N(CCCCCC)c3nc4ccccc4s3)CC2)cc1 (stereo not drawn) [Compound I-4] | A | B | C | C | B | B |
| C=CC(=O)OCCOCCOCCOc1ccc(OC(=O)C2CCC(COc3ccc(OCC4CCC(C(=O)Oc5ccc(OCCOCCOCCOC(=O)C=C)cc5)CC4)c(/C=N/N(CCCCCC)c4nc5ccccc5s4)c3)CC2)cc1 (stereo not drawn) [Compound I-5] | A | A | B | B | A | A |
| C=CC(=O)OCCCCCCOc1ccc(OC(=O)C2CCC(COc3ccc(OCC4CCC(C(=O)Oc5ccc(OCCCCCCOC(=O)C=C)cc5)CC4)c(/C=N/N(CCOCCOC)c4nc5ccccc5s4)c3)CC2)cc1 (stereo not drawn) [Compound I-6] | A | A | B | B | B | A |
| C=CC(=O)OCCCCCCOc1ccc(OC(=O)C2CCC(C(=O)Oc3ccc(C4CCC(CCC)CC4)cc3/C=N/N(CCOCCOC)c3nc4ccccc4s3)CC2)cc1 (stereo not drawn) [Compound I-7] | A | A | A | B | A | A |
| C=CC(=O)OCCCOc1ccc(OC(=O)C2CCC(COc3ccc(OCC4CCC(C(=O)Oc5ccc(OCCCOC(=O)C=C)cc5)CC4)c(/C=N/N(CCOCCOC)c4nc5ccccc5s4)c3)CC2)cc1 (stereo not drawn) [Compound I-8] | A | A | B | B | A | A |
| C=CC(=O)OCCCCCCOc1ccc(OC(=O)C2CCC(COc3ccc(OCC4CCC(C(=O)Oc5ccc(OCCCCCCOC(=O)C=C)cc5)CC4)c(/C=N/N(CCOCCOCCOC(=O)C=C)c4nc5ccccc5s4)c3)CC2)cc1 (stereo not drawn) [Compound I-9] | A | A | A | B | A | A |
| C=CC(=O)OCCCCCCOc1ccc(OC(=O)C2CCC(COc3ccc(C4CCC(CCC)CC4)cc3/C=N/N(CCOCCOC)c3nc4ccccc4s3)CC2)cc1 (stereo not drawn) [Compound I-10] | A | A | B | B | A | A |
| C=CC(=O)OCCCCCCOc1ccc(OC(=O)C2CCC(COc3ccc(-c4ccc(CCC)cc4)c(/C=N/N(CCOCCOC)c4nc5ccccc5s4)c3)CC2)cc1 (stereo not drawn) [Compound I-11] | A | A | B | B | A | A |
| C=CC(=O)OCCOCCOCCOc1ccc(OC(=O)C2CCC(C(=O)Oc3ccc(OC(=O)C4CCC(C(=O)Oc5ccc(OCCOCCOCCOC(=O)C=C)cc5)CC4)c4sc(-c5ccc([N+](=O)[O-])cc5)nc34)CC2)cc1 (stereo not drawn) [Compound I-12] | A | B | B | C | B | A |
| C=CC(=O)OCCOCCOc1ccc(OC(=O)C2CCC(C(=O)Oc3ccc(OC(=O)C4CCC(C(=O)Oc5ccc(OCCOCCOC(=O)C=C)cc5)CC4)c4sc(-c5cc6c(C)cc(C)cc6o5)nc34)CC2)cc1 (stereo not drawn) [Compound I-13] | A | B | C | C | B | A |
| C=CC(=O)OCCOCCOC(=O)C1CCC(C(=O)OC2CCC(C(=O)Oc3ccc(OC(=O)C4CCC(OC(=O)C5CCC(C(=O)OCCOCCOC(=O)C=C)CC5)CC4)c4c3SC(=C3C(=O)N(c5ccccc5)N=C3C(=O)OCC)S4)CC2)CC1 (stereo not drawn) [Compound I-14] | A | B | B | C | B | A |
| C=CC(=O)OCCCCOC(=O)C1CCC(C(=O)OC2CCC(C(=O)Oc3ccc(OC(=O)C4CCC(OC(=O)C5CCC(C(=O)OCCCCOC(=O)C=C)CC5)CC4)c4c3SC(=C(C#N)C(=O)OCCOCCOC(=O)C=C)S4)CC2)CC1 (stereo not drawn) [Compound I-15] | A | B | B | C | B | A |
| C=C(C)C(=O)OCCCCCCOc1ccc(OC(=O)C2CCC(COc3ccc(OCC4CCC(C(=O)Oc5ccc(OCCCCCCOC(=O)C(=C)C)cc5)CC4)c(/C=N/N(CCOCCOC)c4nc5ccccc5s4)c3)CC2)cc1 (stereo not drawn) [Compound I-16] | A | A | B | B | A | A |
| C=CC(=O)OCCCCCCOc1ccc(OC(=O)C2CCC(C(=O)Oc3ccc(C4CCC(C5CCC(CCC)CC5)CC4)cc3/C=N/N(CCOCCOC)c3nc4ccccc4s3)CC2)cc1 (stereo not drawn) [Compound I-17] | A | B | C | C | B | B |
| C=CC(=O)OCCCCCCOc1ccc(OC(=O)C2CCC(C(=O)Oc3ccc(OC(=O)C4CCC(C(=O)Oc5ccc(OCCCCCCOC(=O)C=C)cc5)CC4)c(/C=N/N(COCCOC)c4nc5ccccc5s4)c3)CC2)cc1 (stereo not drawn) [Compound R-1, reference compound] | A | B | C | C | B | B |
| C=CC(=O)OCCCCCCOc1ccc(OC(=O)C2CCC(C(=O)Oc3ccc(OC(=O)C4CCC(C(=O)Oc5ccc(OCCCCCCOC(=O)C=C)cc5)CC4)c4sc(-c5ccc([N+](=O)[O-])cc5)nc34)CC2)cc1 (stereo not drawn) [Compound R-2, reference compound] | B | C | C | C | B | B |
| C=CC(=O)OCCCOC(=O)C1CCC(C(=O)OC2CCC(C(=O)Oc3ccc(OC(=O)C4CCC(OC(=O)C5CCC(C(=O)OCCCOC(=O)C=C)CC5)CC4)c4c3SC(=C3C(=O)N(c5ccccc5)N=C3C(=O)OCC)S4)CC2)CC1 (stereo not drawn) [Compound R-3, reference compound] | A | C | C | C | B | B |
